The results in this text go back to paper PMC12992618 (Nature Communications, 2026).

The target in one assay is T1, BRAF (Homo sapiens, UniProt P15056, V600E).
T1 construct: endogenous BRAF immunoprecipitated from HCC364 cells
The assay is described as follows: BRAF-IP kinase assay after […] h cell treatment. It is filed as cell-based.

In another assay the target is T2, CRAF (Homo sapiens, UniProt P04049).
T2 construct: gene RAF1; endogenous CRAF immunoprecipitated from NCI-H1666 and NCI-H2405 cells
T2 sequence (P04049 whole entry): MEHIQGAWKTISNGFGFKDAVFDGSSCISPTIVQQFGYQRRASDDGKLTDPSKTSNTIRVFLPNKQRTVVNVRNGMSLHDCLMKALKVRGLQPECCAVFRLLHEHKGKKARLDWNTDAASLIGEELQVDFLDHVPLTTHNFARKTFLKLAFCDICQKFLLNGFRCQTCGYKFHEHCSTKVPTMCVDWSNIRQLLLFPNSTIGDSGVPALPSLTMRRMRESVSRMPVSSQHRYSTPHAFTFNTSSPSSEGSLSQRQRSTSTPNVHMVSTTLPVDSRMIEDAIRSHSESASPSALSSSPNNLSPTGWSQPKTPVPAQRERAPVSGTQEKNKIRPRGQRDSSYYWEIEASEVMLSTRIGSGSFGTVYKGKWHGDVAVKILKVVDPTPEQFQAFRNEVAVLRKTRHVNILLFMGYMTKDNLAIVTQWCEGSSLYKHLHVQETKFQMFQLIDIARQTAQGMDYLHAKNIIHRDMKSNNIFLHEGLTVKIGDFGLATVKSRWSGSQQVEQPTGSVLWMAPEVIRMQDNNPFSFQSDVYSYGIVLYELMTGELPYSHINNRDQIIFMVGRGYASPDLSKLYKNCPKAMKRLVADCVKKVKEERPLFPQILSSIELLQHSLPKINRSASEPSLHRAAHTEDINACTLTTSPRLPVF
As to the kind of experiment: CRAF-IP kinase assay after […] h cell treatment. Type of assay: cell-based.

T1 sequence (P15056 2-766 V600E): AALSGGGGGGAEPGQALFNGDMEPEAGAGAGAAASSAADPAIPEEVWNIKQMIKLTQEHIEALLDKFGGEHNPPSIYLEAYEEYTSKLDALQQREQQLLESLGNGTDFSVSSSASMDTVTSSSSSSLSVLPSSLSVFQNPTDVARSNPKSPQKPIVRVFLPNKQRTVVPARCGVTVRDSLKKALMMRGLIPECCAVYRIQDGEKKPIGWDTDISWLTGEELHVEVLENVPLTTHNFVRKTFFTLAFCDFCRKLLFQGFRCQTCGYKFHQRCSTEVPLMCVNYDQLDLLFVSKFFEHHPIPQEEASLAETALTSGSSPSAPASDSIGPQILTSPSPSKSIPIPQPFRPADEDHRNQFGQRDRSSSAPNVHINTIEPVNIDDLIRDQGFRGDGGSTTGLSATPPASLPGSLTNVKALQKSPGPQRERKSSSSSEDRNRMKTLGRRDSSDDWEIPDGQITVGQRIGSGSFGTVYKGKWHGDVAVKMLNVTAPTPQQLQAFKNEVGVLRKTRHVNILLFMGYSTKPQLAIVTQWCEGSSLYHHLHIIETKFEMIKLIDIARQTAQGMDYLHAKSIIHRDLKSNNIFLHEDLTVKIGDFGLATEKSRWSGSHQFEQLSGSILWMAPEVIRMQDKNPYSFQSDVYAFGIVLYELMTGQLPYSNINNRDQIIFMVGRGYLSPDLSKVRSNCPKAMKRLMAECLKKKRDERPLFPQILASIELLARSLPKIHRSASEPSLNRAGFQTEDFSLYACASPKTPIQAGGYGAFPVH

For `Cc1ccc2c(Nc3cccc(Cl)c3F)nccc2c1NC(=O)c1csc2c(N)ncnc12` [belvarafenib], the “BRAF-IP kinase assay after 4 h cell treatment” value on BRAF was “Exarafenib and belvarafenib exhibit potent inhibition of BRAF kinase activity in Class I and II BRAF mutations”. For the same compound, the “CRAF-IP kinase assay after 4 h cell treatment” value at CRAF is “baseline CRAF kinase activity was strongly detected in NCI-H1666 cells and was significantly inhibited by exarafenib and belvarafenib”.
